Test results: doi:10.1101/2024.12.09.627564, “Cannabinoid inhibition of mechanosensitive K^+ channels” (bioRxiv, 2024)

Columns and labels:
TRPV1–4 = tested on: TRPV1–4; parameters: method as in PMID 30697147, PMID 31566564; settings: activation; cited from earlier work
GPR55 = tested on: GPR55; parameters: method as in PMID 17876302, PMID 29669714, PMID 36787750; settings: negative modulation of GPR55; cited from earlier work
TRAAKG165E = molecular target: T1, TRAAKG165E (Homo sapiens, UniProt Q9NYG8, G139E); assay: Excised patch recording of TRAAK mutant G165E; type: biochemical
T1 construct: The transcribed messages encode H. sapiens TRAAK amino acids 1–393; expressed in transfected cells; host or cells: Xenopus laevis oocytes, cRNA injection
T1 sequence (Q9NYG8 1-393 G139E): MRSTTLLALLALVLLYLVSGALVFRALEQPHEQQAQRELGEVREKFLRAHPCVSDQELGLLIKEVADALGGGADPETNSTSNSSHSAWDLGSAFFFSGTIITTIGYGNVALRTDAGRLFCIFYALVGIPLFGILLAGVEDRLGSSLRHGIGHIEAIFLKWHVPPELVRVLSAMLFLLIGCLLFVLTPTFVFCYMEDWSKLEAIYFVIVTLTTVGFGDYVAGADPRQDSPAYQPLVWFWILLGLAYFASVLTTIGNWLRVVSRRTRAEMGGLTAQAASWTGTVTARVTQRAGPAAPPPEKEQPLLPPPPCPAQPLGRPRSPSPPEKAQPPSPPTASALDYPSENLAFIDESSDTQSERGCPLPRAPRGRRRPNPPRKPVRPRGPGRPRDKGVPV
Description: For patch clamp recording from Xenopus oocytes, genes encoding full-length Homo sapiens TRAAK (UniProt Q9NYG8–2), TREK-1 (UniProt O95069), and TREK-2 (UniProt P57789) were codon optimized for eukaryotic expression, synthesized (Genewiz), and cloned into a modified pGEMHE vector using Xho1 and EcoR1 restriction sites. The transcribed messages encode H. sapiens TRAAK amino acids 1–393, TREK-1 amino acids 1–426, or TREK-2 amino acids 1–538 with an additional three amino acids (SNS) at the C terminus. TRAAK mutants were introduced by polymerase chain reaction (PCR). Linearized DNA was transcribed in vitro using T7 polymerase. […] Currents were recorded at 25 °C from inside-out patches excised from oocytes 1 to 5 d after RNA injection. […]
Patches were evaluated with voltage-step protocols to confirm TRAAK expression and minimal non-specific leak based on reversal potential. Currents were recorded using an Axopatch 200B amplifier (Molecular Devices) at a bandwidth of 1 kHz and digitized with an Digidata 1550B (Molecular Devices) at 100–500 kHz using pClamp10.7 software. […] In an effort to minimize variability associated with differences in resting membrane tension, we targeted patches with low basal curvature and low resting channel activity and ensured measured pressure difference across the patch was as close to zero as possible at rest to prevent mechanical activation of channels. […]

In the case of `C=C(C)[C@@H]1CCC(C)=C[C@H]1c1c(O)cc(CCCCC)cc1O` [CBD, Cannabidiol], the EC50 (TRPV1–4) is listed as 1000 to 4000 nM, the IC50 (GPR55) is listed as about 500 nM and the IC50 (TRAAKG165E) is listed as 162 ± 8 nM.
